Experimental data from US11725015B2, “Macrocyclic compound and uses thereof” (President and Fellows of Harvard College, priority 2017, dated 2023).

Assays:
[1] = tested on: MES-SA/Dx5-Rx1 (human uterine sarcoma, overexpress P-gp); assay: In vitro antiproliferative activity, MES-SA/Dx5-Rx1; type: cell-based; settings: MES-SA/Dx5-Rx1, 72 hours
Protocol: The in vitro antiproliferative assays for Compound (1) were conducted using a small panel of cancer cell lines including human squamous cell carcinoma of the esophagus (OE21, TE-8), human adenocarcinoma of the esophagus (OE33), and human uterine sarcoma (MES-SA, MES-SA-Dx5-Rx1). All cell lines were cultured in RPMI-1640 medium containing 10% FBS, and penicillin-streptomycin (culture medium), in a 5% CO2 incubator (37° C.). To each well of a 96 well plate (Becton, Dickinson and Company, 353219), 75 μL of cell suspension adjusted to a concentration of 4×10^4 cells/mL with the culture medium was added, and the cells were incubated overnight in a 5% CO2 incubator (37° C.). On the next day, 25 μL of Compound (1) in three-fold dilution series suspended in the culture medium was added to each well, and the resultant was incubated for 72 hours in a 5% CO2 incubator (37° C.). Then, cell viability was determined by CellTiter-Glo® Luminescent Cell Viability Assay (Promega) with 2013 EnVision™ Multilabel Reader (Perkin-Elmer, Wellesley, Mass.). Value of the wells containing cells without adding the test compounds was defined as 100% and the value of the wells containing no cells was defined as 0%. […] The P-gp susceptibility was calculated as the ratio of the IC50 value in MES-SA-Dx5-Rx1 cells, which overexpress P-gp, to the IC50 value in MES-SA cells.

[2] = tested on: human breast cancer cell line HCC1954; assay: HCC1954 growth inhibition assay; type: cell-based; settings: 3 days incubation, CellTiter-Glo
Protocol: In this assay, the growth inhibitory activity of test compounds in a human breast cancer cell line HCC1954 was measured. HCC1954 cells were maintained in an RPMI-1640 medium modified to contain 2 mM L-glutamine, 10 mM HEPES, 1 mM sodium pyruvate, 4500 mg/L glucose, and 1500 mg/L sodium bicarbonate (ATCC 30-2001) containing 10% fetal bovine serum (FBS: Nichirei, 12D168), and penicillin and streptomycin in a 5% CO2 incubator (37° C.). To each well of a 96 well plate (Becton, Dickinson and Company, 353219), 75 μL of HCC1954 cell suspension adjusted to a concentration of 4×10^4 cells/mL with the culture medium was added, and the cells were incubated overnight in a 5% CO2 incubator (37° C.). On the next day, 25 μL of Compound (1) or Halichondrin B in three-fold dilution series suspended in the culture medium was added to each well, and the resultant was incubated for 3 days in a 5% CO2 incubator (37° C.). Then, cell viability was determined by CellTiter-Glo® Luminescent Cell Viability Assay (Promega) with EnVision 2103 Multilabel Reader (Perkin-Elmer, Wellesley, Mass.). Value of the wells containing cells without adding the test compounds was defined as 100% and the value of the wells containing no cells was defined as 0%. The concentration of the test compound necessary for inhibiting the cell growth by 50% (i.e., an IC50 value) was calculated, and shown in Table 3.

[3] = tested on: HCC1806 subcutaneous xenograft; assay: Antitumor activity against HCC1806 subcutaneous xenograft model in mice as monotherapy; type: in vivo; settings: 0.18 mg/kg intravenously, Q7D×2
Protocol: A human breast cancer cell line HCC1806, which had been cultured in an RPMI-1640 medium containing 10% FBS, and penicillin and streptomycin, was adjusted to a concentration of 1×10^8 cells/mL with PBS to prepare a cell suspension, and the suspension was mixed with Matrigel™ (BD Bioscience, #366237) in a ratio of 1:1 to prepare a cell suspension in a concentration of 5×10^7 cell/mL. The cell suspension was inoculated in a volume of 100 μL into a subcutaneous part of a right flank of nude mice, 5 weeks of ages (CAnN.Cg-Foxnlnu/CrlCrlj, female, Charles River Laboratories Japan, Inc.).
On the basis of the volumes of tumors obtained on the first day of administration, the mice were grouped such that averages of the tumor volumes were substantially equal among the groups. The experiment was conducted on groups each consisting of 6 mice. Test compound was dissolved in saline and intravenously administered at 0.18 mg/kg once a week for 2 weeks (Q7D×2 schedule).

Tenascin-C = assay: Effect on Tenascin-C in the FaDu subcutaneous model in mice; type: in vivo; settings: Compound (1) 180 μg/kg + CTX 10 mg/kg on Day 1, five days after, compared with control tumors
Protocol: A human squamous cell carcinoma of the head and neck (SCCHN) cell line FaDu, which had been cultured in an RPMI-1640 medium containing 10% FBS, and penicillin-streptomycin (culture medium), was adjusted to a concentration of 5×10^7 cells/mL with culture medium to prepare a cell suspension. The cell suspension was inoculated in a volume of 100 μL into a subcutaneous part of a right flank of nude mice, 6 weeks of ages (CAnN.Cg-Foxnlnu/CrlCrlj, female, Charles River Laboratories Japan, Inc.). Ten days after cell inoculation, the mice were grouped such that averages of the tumor volumes were substantially equal among the groups. The experiment was conducted on groups each consisting of 5 mice. Compound (1) was dissolved in DMSO and a solution was stored in the freezer before use. […] Five days after the single administration, tumor samples were collected and fixed with IHC Zinc Fixative (BD Pharmingen) at 4° C. for 24 hr. Paraffin-embedded tissues were sectioned (3 μm), mounted on positively charged slides, and air-dried. Sections were deparaffinized, conditioned and the antigens were retrieved using microwave with 1 mM EDTA at pH 6.0 for Tenascin-C. For EDA-fibronectin, the antigens retrieval procedure was not necessary. […]

**Q.** How did the antiproliferative activity [1] turn out when C=C1C[C@@H]2CC[C@@]34C[C@H]5O[C@H]6[C@@H](O3)[C@H]3O[C@H](CC[C@@H]3O[C@H]6C5O4)CC(=O)O[C@@H]3[C@@H](C)[C@@H]4O[C@@H]5C[C@]6(C[C@@H]7O[C@]8(C[C@H](C)[C@@H]9O[C@H](CN)[C@H](O)C[C@@H]9O8)C[C@H](C)[C@@H]7O6)O[C@@H]5C[C@@H]4O[C@H]3C[C@H]3O[C@@H](CC[C@@H]1O2)C[C@@H](C)C3=C [Compound (1)] was run?
**A.** potent antiproliferative agent

**Q.** And the IC50 [2]?
**A.** 0.0668 nM

**Q.** What about the “Tumor Regression (%)” value [3] of the same compound?
**A.** 90%

**Q.** And the “expression level of Tenascin-C” value (Tenascin-C)?
**A.** reduced
